Assay results as given in patent US6734171B1, “Methods for encapsulating nucleic acids in lipid bilayers” (Inex Pharmaceuticals Corp., priority 1997, dated 2004).

Tests used:
Unseparated spleen cells = experiment: Cell proliferation assay (3H-thymidine) of spleen cells stimulated in vitro; type: cell-based, Balb/c mice; settings: spleen cells of Diluent treated mice; label = in vitro stimulation
Protocol: Mice, 12 per group, were injected intravenously (i.v.) with TCS formulations as described below. In this study four injections were given at intervals of seven days over a period of five weeks (Table 4). Group A was injected with INEX324 expressing LacZ reporter gene on day 0, 7 and 14 (150 μl per mouse of INEX324-LacZ, 75 μg DNA). Two weeks after the last LacZ injection, mice were injected with INEX324-Luc (150 μl per injection, 80 μg DNA). To evaluate the immunogenicity of INEX324 lipid, Group B received three injections of INEX324 empty vesicles (150 μl per mouse) and one injection of INEX324-Luc two weeks later. Group C served as a base-line control, mice were given 150 μl of diluent at each time point. Mice from Group D received three diluent injections, followed by a single injection of INEX324-Luc, and served as a positive control for luciferase expression. Three mice from each group were sacrificed at 18 hours after each injection, or 24 hours prior to the following injection. Blood was collected and the serum samples were analyzed for the presence of antibodies specific for β-galactosidase using an ELISA assay. […] Splenocytes were monitored for expression, of differentiation (CD4, CD8, CD22, CD11b) and activation (CD86, MHC-II, Ly-6A/E, CD54 and CD25) markers. […]
Unseparated spleen cells were tested in vitro for their ability to proliferate upon re-stimulation with the empty INEX324 vesicles, INEX324-LacZ formulation, LacZ, transgene product (r-β-galactosidase), or with polyclonal activators for T (Concanavalin A, Con A) and […] (Lipopolysaccharide, LPS). […] An isolated cell suspension was separated from debris by removing the supernatant and the cell number was quantified using a Coulter counter (Coulter Instruments, Miami, Fla.). […] The levels of incorporated radioactivity were measured in a scintillation counter. ^3H-thymidine incorporation is expressed total ^3H-incorporation (DPMs), or as a mean percentage (±SD) of media control and plotted versus lipid concentration values.

Splenocytes = experiment: Cytokine release (IL-2, IL-4 ELISA) of splenocytes stimulated in vitro; type: cell-based, Balb/c mice; settings: spleen cells of Diluent treated mice; label = in vitro stimulation
Protocol: Splenocytes (1×10^6 cells/ml) were either nonstimulated or cultured in the presence of various concentrations of either empty INEX324 vesicles, or INEX324-LacZ formulation at different times after culture initiation (24 h and 48 h). The levels of cytokine in the cell culture supernatant (Interleukin-2 and Interleukin-4) were determined by an ELISA assasy (below).
Cytokine-specific ELISA assays were performed using the protocol and specific anti-interleukin antibodies provided by reagent mini-kit (Endogen, Woburn MA). Briefly, Immuno-module (F8-maxisorb) 96-well plates were coated overnight with anti-IL-2, or anti-IL-4 antibody. Plates were washed with PBS-Tween 20 (0.05%) and blocked with PBS-Tween 20-BSA (2%) for 1 hour at room temperature. Supernatant samples and standards (diluted in blocking buffer) were added and allowed to incubate overnight. Plates were washed and biotinylated anti-IL-2 or anti-IL-4 antibody was added. After 2 hours incubation, plates were washed and HRP-Extravidin, followed by TMB, was added to each well. Plates were read on a plate reader at OD450nm. The amount of released cytokine was determined by comparing the O.D. of test supernatants to a standard curve of serially diluted cytokine standards.

Substance	3H-incorporation (Unseparated spleen cells)	Cytokine release IL-2 (Splenocytes)	Cytokine release IL-4 (Splenocytes)
Lipopolysaccharide [LPS]	35676 DPMs	–	–
Concanavalin A [ConA]	215542 DPMs	0.615 OD450	0.138 OD450
r-β-gal: transgene product (r-β-galactosidase)	18336 DPMs	0.059 OD450	0.103 OD450
